Test results reported in patent US7291337B2, “Peptide having an affinity for gp120” (Aspion Co., Ltd., priority 2000, dated 2007).

Key:
[1] = biological target: gp120 (Human immunodeficiency virus type 1 group M subtype B, UniProt P03375); conditions: peptide conjugated latex beads; for Agglutinin test, Colloidal gold conjugated gp120: protein contents 1 μg/ml; for Agglutinin test, gp120 protein: unlabelled gp120, contents 1 μg/ml
[2] = biological target: HIV-1-gp120 (Immuno Diagnosis Co.), horseradish peroxidase labeled and enzyme unlabeled (HIV-1); test: Scatchard plot; HRP-labeled and unlabeled gp120 added to peptide carrier
[3] = biological target: HIV-1 kk-1 (virus; gp120 on it) (HIV-1 kk-1); test: column absorption of KK-1 virus in human serum; p24 antigen ELISA
[4] = biological target: HIV-1 kk-1 (virus; gp120 on it) (HIV-1 kk-1); test: column absorption of KK-1 virus in human serum; p24 antigen ELISA of lysed bound virus (starting material 2,350)
[5] = tested on: HTLV-IIIB (laboratory strain); test: Investigation of neutralizing activity of HIV-1 (CPE in MT-4 cells), HTLV-IIIB; assay type: cell-based; conditions: content to inhibit infection (CPE), 6 days, NE = no effect
Text: (§1) Then, we used AZT as a positive control.

[6] = tested on: KK-1 (freshly isolated HIV); test: Investigation of neutralizing activity of HIV-1 (CPE in MT-4 cells), KK-1; assay type: cell-based; conditions: content to inhibit infection (CPE), 6 days, NE = no effect
Text: as §1

[7] = tested on: serum of hepatitis C or B patients, laboratory strain and freshly isolated strain, virus lysate conjugated colloidal gold; test: Specificity test with peptide conjugated latex beads against viruses (Table 17); assay type: binding
Text: The virus that was in use in this enforcement example was serum, laboratory strain and a freshly isolated strain that was gathered from patients of hepatitis C or B at final stage. Then, we used virus lysate that conjugated colloidal gold as previously.

[8] = Sample/Virus No. 1: HIV-1 IIIB, 1.0 × 10^5 TCID50
[9] = Sample/Virus No. 2: HIV-1 Lav 1, 1.0 × 10^5 TCID50
[10] = Sample/Virus No. 3: HIV-1 kk-1, 1.0 × 10^4.5 TCID50
[11] = Sample/Virus No. 4: HIV-2 Lav2, 1.0 × 10^6 TCID50
[12] = Sample/Virus No. 5: Serum of HCV patients, titer indistinct
[13] = Sample/Virus No. 6: Serum of HBV patients, titer indistinct
[14] = Sample/Virus No. 7: Hepatitis B surface antigen(HbsAg), 1.6 × 10^5 units
[15] = Sample/Virus No. 8: Valaricella Zoster valirus, 9.5 × 10^5 units
[16] = Sample/Virus No. 9: Argubella Zoster valirus (VZV), 4.9 × 10^5 units
[17] = Sample/Virus No. 10: HTLV-1 virul lysate, 1.1 × 10^5 units
[18] = Sample/Virus No. 11: human cytomegalovirus (HCMV), 5.5 × 10^5 units
[19] = Sample/Virus No. 12: Epstein-Barr virus(EB virus), 9.9 × 10^5 units

**Q.** How did the “Agglutinin test, Colloidal gold conjugated gp120” value [1] turn out when Asp-Val-Lys-Ala-Gly [No. 1 in Table 1] was run?
**A.** Its value is “Presence”.

**Q.** And the “Agglutinin test, gp120 protein” value [1]?
**A.** The value was “Absence”.

**Q.** How did the Kd [2] turn out when “No. 1 peptide of Table 1 (Asp-Val-Lys-Ala-Gly) bound to Sephadex 6MB” was run?
**A.** The Kd was 0.214 nM.

**Q.** With “No. 12 peptide of Table 3 (Tyr-Tyr-Lys-Ala-Ala) bound to Sephadex 4B” as the substance, how does the Kd [2] read?
**A.** The Kd was 0.497 nM.

**Q.** What does the source list for “No. 12 peptide of Table 3 (Tyr-Tyr-Lys-Ala-Ala) bound to cellulose type carrier”?
**A.** percent of supplied virus absorbed [3]: < 10%; p24(S/CO), fraction of column absorption [4]: 205 S/CO

**Q.** With “Phe-Arg-Lys-Ala-Ala (FRKAA; printed: Phe-Arg-Lys-Ala-Ala) [No. 8 in Table 3]” as the substance, how does the “Anti-HIV neutralizing activity (μg/ml) HTLV-IIIB” value [5] read?
**A.** The value was 125 µg/mL.

**Q.** And the “Anti-HIV neutralizing activity (μg/ml) KK-1” value [6]?
**A.** The value was 125 µg/mL.

**Q.** With Table 1 No. 1 (DVKAG) as the substance, how does the Presence of agglutinin [7, 8] read?
**A.** Its Presence of agglutinin is “+”.

**Q.** What about the Presence of agglutinin [7, 9] of the same substance?
**A.** The Presence of agglutinin was “+”.

**Q.** And the Presence of agglutinin [7, 10]?
**A.** The Presence of agglutinin was “+”.

**Q.** What about the Presence of agglutinin [7, 11] of the same substance?
**A.** Its Presence of agglutinin is “−”.

**Q.** What about the Presence of agglutinin [7, 12] of the same substance?
**A.** Its Presence of agglutinin is “−”.

**Q.** What about the Presence of agglutinin [7, 13] of the same substance?
**A.** Its Presence of agglutinin is “−”.

**Q.** And the Presence of agglutinin [7, 14]?
**A.** The Presence of agglutinin was “−”.

**Q.** What about the Presence of agglutinin [7, 15] of the same substance?
**A.** Its Presence of agglutinin is “−”.

**Q.** What about the Presence of agglutinin [7, 16] of the same substance?
**A.** The Presence of agglutinin was “−”.

**Q.** What about the Presence of agglutinin [7, 17] of the same substance?
**A.** The Presence of agglutinin was “−”.

**Q.** What about the Presence of agglutinin [7, 18] of the same substance?
**A.** Its Presence of agglutinin is “−”.

**Q.** And the Presence of agglutinin [7, 19]?
**A.** Its Presence of agglutinin is “−”.

**Q.** Which Presence of agglutinin [7, 8] does the source give for Table 3 No. 6 (WWKAA) here?
**A.** Its Presence of agglutinin is “+”.

**Q.** What about the Presence of agglutinin [7, 9] of the same substance?
**A.** The Presence of agglutinin was “+”.

**Q.** What about the Presence of agglutinin [7, 10] of the same substance?
**A.** Its Presence of agglutinin is “+”.

**Q.** And the Presence of agglutinin [7, 11]?
**A.** Its Presence of agglutinin is “−”.

**Q.** What about the Presence of agglutinin [7, 12] of the same substance?
**A.** Its Presence of agglutinin is “−”.

**Q.** What about the Presence of agglutinin [7, 13] of the same substance?
**A.** The Presence of agglutinin was “−”.

**Q.** And the Presence of agglutinin [7, 14]?
**A.** The Presence of agglutinin was “−”.

**Q.** And the Presence of agglutinin [7, 15]?
**A.** Its Presence of agglutinin is “−”.

**Q.** What about the Presence of agglutinin [7, 16] of the same substance?
**A.** Its Presence of agglutinin is “−”.

**Q.** And the Presence of agglutinin [7, 17]?
**A.** The Presence of agglutinin was “−”.

**Q.** What about the Presence of agglutinin [7, 18] of the same substance?
**A.** Its Presence of agglutinin is “−”.

**Q.** What about the Presence of agglutinin [7, 19] of the same substance?
**A.** The Presence of agglutinin was “−”.

**Q.** What does the source list for Trp-Trp-Lys-Ala-Ala [No. 6 in Table 3]?
**A.** Agglutinin test, Colloidal gold conjugated gp120 [1]: Presence; Agglutinin test, gp120 protein [1]: Absence
